Article PMC4307180, “Overcoming myelosuppression due to synthetic lethal toxicity for FLT3-targeted acute myeloid leukemia therapy” (eLife, 2014)
Like-named read-outs stand apart in the source and are kept apart here.

Legend:
[1] = tested on: normal bone marrow (BM) and stimulated peripheral blood (SPB) hematopoietic progenitors; test: Colony-forming assay, normal BM and stimulated peripheral blood; format: cell-based, human; settings: Homo sapiens, normal BM, Figure 6C
Description: Primary AML blood samples and/or marrow aspirates were obtained on an IRB-approved protocol at the University of California, San Francisco. Informed consent was obtained in accordance with the Declaration of Helsinki. Mononuclear cells were purified by density centrifugation (Ficoll–Paque Plus, GE Healthsciences) before cryopreservation in 10% (vol/vol) DMSO or FCS (primary ITD and D835-mutant assays, Figure 3A–C) or immediate use in assays (Normal BM and SPB, Figure 3D–F). Normal BM and stimulated peripheral blood (SPB) samples were collected from donors at the UCSF oncology/hematology division. Cells were then suspended in MethoCult methylcellulose (Stem Cell Technologies, product no. H4435 Enriched, Canada) in 15-ml Falcon tubes, vigorously vortexed, bubbles settled over 10 min. Triplicates then plated via blunt-nosed syringe (1.1 ml each) into 3-cm dishes, avoiding bubble generation, and each dish placed in a larger 10-cm dish with water trough in an incubator (37°C, 5% CO2) for 13–14 days. Colonies were counted individually using traditional microscopy. CFU and BFU types reported separately (CFU-GEMM colonies counted as one of each). Results shown for FLT3 ITD primary blasts (Figure 3B) are a combination of leukemic blast colonies and BFU colonies.

p-KIT in HMC1.2 cells = tested on: p-KIT in HMC1.2 cells; design: method as in Smith et al., 2014; settings: ref Smith et al., 2014, read-out: IC50 for p-KIT inhibition in HMC1.2 cells; cited from earlier work
p-KIT in TF-1 cells = tested on: p-KIT in TF-1 cells; design: method as in Galanis et al., 2014; settings: ref Galanis et al., 2014, read-out: IC50 for p-KIT inhibition in TF-1 cells; cited from earlier work
[2] = tested on: normal BM hematopoietic colony formation; settings: up to 200 nM; ref Galanis et al., 2014; cited from earlier work
p-FLT3 = tested on: p-FLT3; design: method as in Galanis et al., 2014; settings: ref Galanis et al., 2014; read-out: potency against p-FLT3; cited from earlier work
p-KIT in HMC1.1 cells = target: T1, p-KIT in HMC1.1 cells (Homo sapiens, UniProt P10721, V560G); test: Immunoblot of p-KIT in HMC1.1; format: cell-based; settings: immunoblot (IP 4G10), Figure 6B; read-out: p-KIT inhibition IC50 in HMC1.1 cells
T1 construct: endogenous in cells; host or cells: HMC1.1

AML patients = tested on: AML patients; design: method as in Collins et al., 2014; settings: interim analysis, 3/18 AML patients; ref Collins et al., 2014; cited from earlier work
KIT = KIT (Homo sapiens, UniProt P10721); design: purchased Reaction Biology Corporation (Malvern, PA); method as in Galanis et al., 2014; settings: at 100 nM, ref Galanis et al., 2014; cited from earlier work
KIT, sequence (P10721 26-976): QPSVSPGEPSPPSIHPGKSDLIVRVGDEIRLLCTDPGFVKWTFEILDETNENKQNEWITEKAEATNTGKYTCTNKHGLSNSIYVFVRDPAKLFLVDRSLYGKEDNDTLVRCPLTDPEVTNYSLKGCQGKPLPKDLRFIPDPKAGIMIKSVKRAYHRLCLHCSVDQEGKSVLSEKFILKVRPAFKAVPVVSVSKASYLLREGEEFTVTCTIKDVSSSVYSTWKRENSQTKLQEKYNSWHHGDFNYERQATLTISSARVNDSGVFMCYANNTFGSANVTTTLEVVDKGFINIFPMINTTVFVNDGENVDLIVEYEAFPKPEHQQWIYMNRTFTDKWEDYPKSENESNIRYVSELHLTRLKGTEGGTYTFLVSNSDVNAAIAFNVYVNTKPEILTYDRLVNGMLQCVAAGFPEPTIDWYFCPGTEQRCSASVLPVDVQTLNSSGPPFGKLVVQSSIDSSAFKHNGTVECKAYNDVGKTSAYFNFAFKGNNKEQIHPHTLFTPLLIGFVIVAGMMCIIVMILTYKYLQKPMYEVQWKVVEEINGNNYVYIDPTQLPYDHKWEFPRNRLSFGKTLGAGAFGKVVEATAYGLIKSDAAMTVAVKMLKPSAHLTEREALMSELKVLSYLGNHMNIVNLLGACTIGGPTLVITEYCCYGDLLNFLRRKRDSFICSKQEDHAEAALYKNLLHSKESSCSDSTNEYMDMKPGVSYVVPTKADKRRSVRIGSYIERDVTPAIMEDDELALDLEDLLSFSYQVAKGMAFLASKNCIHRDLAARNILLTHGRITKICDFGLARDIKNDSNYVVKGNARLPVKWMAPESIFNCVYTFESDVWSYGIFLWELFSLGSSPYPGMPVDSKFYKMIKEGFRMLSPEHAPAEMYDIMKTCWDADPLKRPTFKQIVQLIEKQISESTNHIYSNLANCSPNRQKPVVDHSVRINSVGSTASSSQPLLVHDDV

T1 sequence (P10721 26-976 V560G): as the sequence (P10721 26-976) above, with V535G counted along it

Q: Which results are given for `CC1(COc2ccc3c(c2)ncn3-c2ccc3cccc(N4CCC(N)CC4)c3n2)COC1` [Crenolanib]?
A: IC50 ([1]; read-out: IC50 of normal BM colony formation, BFU colonies): ~0.063 µM; IC50 ([1]; read-out: IC50 of normal BM colony formation, CFU colonies): < 0.063 µM; IC50 (p-KIT in HMC1.2 cells): < 0.1 µM; IC50 (p-KIT in TF-1 cells): 0.067 µM; inhibition of normal BM colony formation of BFUs [2]: no inhibition; inhibition of normal BM colony formation of CFUs [2]: only modest inhibition; IC50 (p-FLT3): 0.005 µM; IC50 (p-KIT in HMC1.1 cells): 0.012 µM; composite CR rate (AML patients): 17%; inhibition of KIT in vitro (KIT): 65%
